Measurements from PubChem BioAssay (NCI).
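Cultured in 96-well plates, cells were exposed to test compound for 48 hours across five concentrations. Here, GI50 denotes the concentration required for 50% inhibition of growth. TGI: total growth inhibition.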

Columns and labels:
Assay in all cases: growth of human tumour cells (NCI), 48 h
[1] = tested on: HCT-116 colon
[2] = tested on: SK-MEL-5 melanoma
[3] = tested on: U251 CNS
[4] = tested on: SW-620 colon
[5] = tested on: MDA-MB-231 breast
[6] = tested on: HCC-2998 colon
[7] = tested on: LOX IMVI melanoma
[8] = tested on: NCI/ADR-RES ovarian

Row | Structure (SMILES) | GI50 [1] | TGI [1] | GI50 [2] | TGI [2] | GI50 [3] | TGI [3] | GI50 [4] | TGI [4] | GI50 [5] | TGI [5] | GI50 [6] | TGI [6] | GI50 [7] | TGI [7] | GI50 [8] | TGI [8]
1 | Cc1ccc(Sc2sc(-c3ccccc3)nc2[P+](c2ccccc2)(c2ccccc2)c2ccccc2)cc1 | 246 nM | 1110 nM | 172 nM | 313 nM | 214 nM | 1400 nM | 319 nM | 1260 nM | 251 nM | 943 nM | 453 nM | 1630 nM | 276 nM | 901 nM | – | –
2 | C=C1C(=O)O[C@H]2[C@H]1CC/C(Cn1cc(-c3cc(C)c(C)cc3C)nn1)=C\CC[C@@]1(C)O[C@@H]21 | 336 nM | 1060 nM | 1660 nM | 3120 nM | 1530 nM | 2910 nM | 424 nM | 1540 nM | 1110 nM | 2620 nM | 1720 nM | 3330 nM | 725 nM | 2100 nM | 2510 nM | 12900 nM
3 | COc1ccc2c(c1)/C(=C/c1cc(OC)c(OC)c(OC)c1)C(=O)N2C | 2560 nM | 13300 nM | 2760 nM | 12600 nM | 1940 nM | 4830 nM | 1590 nM | 8660 nM | 2810 nM | > 27100 nM | 9390 nM | > 56100 nM | 2320 nM | 11800 nM | 3370 nM | > 39700 nM
4 | COc1ccc(-c2cc(=O)c3c(OC)c(OC)c(OC)c(OC)c3o2)c(OC)c1 | – | 49500 nM | – | 55800 nM | – | > 100000 nM | – | > 100000 nM | – | > 100000 nM | – | 46600 nM | – | 34800 nM | – | 67300 nM
5 | COc1cc2c(cc1OCCCCOc1ccc(-c3nc4ccccc4s3)cc1)N=C[C@@H]1CCCN1C2=O | 511 nM | 1620 nM | 667 nM | 1850 nM | 534 nM | 1850 nM | 426 nM | 1770 nM | 573 nM | 2040 nM | 820 nM | 2280 nM | 730 nM | 1960 nM | 1490 nM | 5170 nM
6 | Nc1ncnc2c1cnn2Cc1ccc(Cl)cc1 | – | > 100000 nM | – | > 100000 nM | – | > 100000 nM | – | > 100000 nM | – | > 100000 nM | – | > 100000 nM | – | > 100000 nM | – | > 100000 nM
7 | NC(=O)c1ccc2nc3c(n2c1)C(=O)C(=O)c1ccccc1-3 | 327 nM | 1210 nM | 936 nM | 2250 nM | 296 nM | 928 nM | 1880 nM | 4050 nM | 850 nM | 2320 nM | 1600 nM | 3130 nM | 264 nM | 787 nM | 1880 nM | 6190 nM
8 | CC1(C)CC2(C)CC1CC2NC(=O)CCN1CCOCC1 (stereo not drawn) | – | > 100000 nM | – | > 100000 nM | – | > 100000 nM | – | > 100000 nM | – | > 100000 nM | – | > 100000 nM | – | – | – | –
9 | C=CC1=C(C)C2=NC1=CC1=NC(=CC3=C(C)C4=C(O)C(C(=O)OC)C(=C5NC(=C2)C(C)C5CCC(=O)OC)C4=N3)C(CC)=C1C (stereo not drawn) | – | > 100000 nM | – | > 100000 nM | – | > 100000 nM | – | > 100000 nM | – | > 100000 nM | – | > 100000 nM | – | > 100000 nM | – | –
10 | N#Cc1ccc2c(c1)C(=O)c1c-2n(CCCN)c(=O)c2cc([N+](=O)[O-])ccc12 | 199 nM | 1590 nM | 248 nM | 1350 nM | 71.8 nM | 497 nM | 29.1 nM | 568 nM | 1500 nM | 3040 nM | 101 nM | 447 nM | 69.6 nM | 1080 nM | 359 nM | 3190 nM
11 | CCNCCCn1c2c(c3ccc([N+](=O)[O-])cc3c1=O)C(=O)c1cc(OC)cnc1-2 | – | – | 78 nM | 234 nM | 32.9 nM | 186 nM | 65.3 nM | 3570 nM | 326 nM | 1490 nM | 151 nM | 660 nM | 26.5 nM | 131 nM | 55.9 nM | 689 nM
12 | O=C1CS/C(=N\S(=O)(=O)c2ccc(N3N=C4c5ccccc5CC4C3c3ccc(Cl)cc3)cc2)N1c1ccccc1 (stereo not drawn) | 38700 nM | > 100000 nM | 32200 nM | > 100000 nM | 27800 nM | 64800 nM | 37400 nM | > 100000 nM | 86000 nM | > 100000 nM | – | – | 23400 nM | 49100 nM | – | –
13 | CSc1ncnc2c1CCN2 | > 100000 nM | > 100000 nM | > 100000 nM | > 100000 nM | – | – | > 100000 nM | > 100000 nM | – | – | > 100000 nM | > 100000 nM | > 100000 nM | > 100000 nM | – | –
14 | CCOC(=O)Nc1nc2c(C)cccc2s1 | 45300 nM | > 100000 nM | 28000 nM | 91500 nM | 77500 nM | > 100000 nM | 64700 nM | > 100000 nM | 36100 nM | > 100000 nM | 64700 nM | > 100000 nM | 49700 nM | > 100000 nM | 38900 nM | > 100000 nM
15 | NC(CC1=CCC=CC1)C(=O)O (stereo not drawn) | – | > 100000 nM | – | > 100000 nM | – | > 100000 nM | – | > 100000 nM | – | > 100000 nM | – | > 100000 nM | – | > 100000 nM | – | –
16 | Clc1ccc(Nc2ccnc(NCCCNc3ccnc4cc(Cl)ccc34)n2)cc1 | 1420 nM | 3100 nM | 1400 nM | 2750 nM | 1480 nM | 2910 nM | 1490 nM | 3110 nM | – | – | – | – | – | – | 1760 nM | 3380 nM
17 | CC(C)c1ccc(NC(=S)NC(=O)c2ccccc2)cc1 | – | 39300 nM | – | 27000 nM | – | 80100 nM | – | 62800 nM | – | 57000 nM | – | 39400 nM | – | 31200 nM | – | > 100000 nM
18 | O=C(CC1C=CCS1(=O)=O)NCc1ccccc1 (stereo not drawn) | – | > 100000 nM | – | > 100000 nM | – | > 100000 nM | – | > 100000 nM | – | > 100000 nM | – | > 100000 nM | – | > 100000 nM | – | > 100000 nM
